How the values were obtained:
Assay in all cases: relative viability (nuclei count vs DMSO), 5 days (fraction); higher = more cells survive
[1] = compound: Cn1cncc1[C@@](N)(c1ccc(Cl)cc1)c1ccc2c(c1)c(-c1cccc(Cl)c1)cc(=O)n2C [Tipifarnib] + CC(C)C[C@H](NC(=O)[C@H](Cc1ccccc1)NC(=O)c1cnccn1)B(O)O [Bortezomib] (partner 0.002 µM)
How it was run: (§1)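 Lung cancer cell lines in 1536-well plates got either a single drug or a fixed anchor-drug dose together with five library-drug doses (not always all listed) in √10 steps, by pin tool, on the day after seeding. Nuclei were counted after 5 days, and relative viability is the treated-to-vehicle ratio of nuclei counts. Values are medians of duplicate plates.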

[2] = compound: Cn1cncc1[C@@](N)(c1ccc(Cl)cc1)c1ccc2c(c1)c(-c1cccc(Cl)c1)cc(=O)n2C [Tipifarnib] + NC(=O)Nc1cc(-c2cccc(F)c2)sc1C(=O)N[C@H]1CCCNC1 [AZD7762] (partner 0.2 µM)
How it was run: as §1

[3] = compound: Cn1cncc1[C@@](N)(c1ccc(Cl)cc1)c1ccc2c(c1)c(-c1cccc(Cl)c1)cc(=O)n2C [Tipifarnib] + Cc1cc(Nc2cc(N3CCN(C)CC3)nc(Sc3ccc(NC(=O)C4CC4)cc3)n2)n[nH]1 [Tozasertib] (partner 0.1 µM)
How it was run: as §1

[4] = compound: Cn1cncc1[C@@](N)(c1ccc(Cl)cc1)c1ccc2c(c1)c(-c1cccc(Cl)c1)cc(=O)n2C [Tipifarnib] + Nc1ncn([C@H]2C[C@H](O)[C@@H](CO)O2)c(=O)n1 [Decitabine] (partner 2 µM)
How it was run: as §1

Row | Cell Line | relative viability ([1]; first compound 0.01 µM) | relative viability ([1]; first compound 0.03162 µM) | relative viability ([1]; first compound 0.1 µM) | relative viability ([1]; first compound 0.3162 µM) | relative viability ([1]; first compound 1 µM) | relative viability ([2]; first compound 0.01 µM) | relative viability ([2]; first compound 0.03162 µM) | relative viability ([2]; first compound 0.1 µM) | relative viability ([2]; first compound 0.3162 µM) | relative viability ([2]; first compound 1 µM) | relative viability ([3]; first compound 0.01 µM) | relative viability ([3]; first compound 0.03162 µM) | relative viability ([3]; first compound 0.1 µM) | relative viability ([3]; first compound 0.3162 µM) | relative viability ([3]; first compound 1 µM) | relative viability ([4]; first compound 0.01 µM) | relative viability ([4]; first compound 0.03162 µM) | relative viability ([4]; first compound 0.1 µM) | relative viability ([4]; first compound 0.3162 µM) | relative viability ([4]; first compound 1 µM)
1 | LOU-NH91 | 0.436 | 0.42 | 0.558 | 0.534 | 0.457 | 0.715 | 0.685 | 0.636 | 0.625 | 0.503 | 0.61 | 0.524 | 0.329 | 0.464 | 0.441 | 0.804 | 0.791 | 0.801 | 0.664 | 0.738
2 | NCI-H3122 | 0.967 | 0.976 | 0.986 | 0.833 | 0.832 | 0.967 | 0.971 | 0.714 | 0.556 | 0.348 | 0.372 | 0.27 | 0.277 | 0.196 | 0.183 | 0.414 | 0.407 | 0.415 | 0.397 | 0.308
3 | PC-3 [JPC-3] | 0.873 | 0.629 | 0.698 | 0.609 | 0.427 | 0.805 | 0.714 | 0.532 | 0.519 | 0.457 | 0.827 | 0.827 | 0.722 | 0.701 | 0.535 | 0.866 | 0.872 | 0.828 | 0.644 | 0.648
4 | NCI-H1651 | 0.94 | 0.916 | 1.04 | 0.842 | 0.78 | 0.536 | 0.467 | 0.524 | 0.44 | 0.363 | 0.927 | 0.649 | 0.615 | 0.575 | 0.711 | 0.667 | 0.597 | 0.658 | 0.761 | 0.421
5 | NCI-H2087 | 0.705 | 0.418 | 0.375 | 0.276 | 0.39 | 0.99 | 0.48 | 0.249 | 0.241 | 0.395 | 0.245 | 0.164 | 0.164 | 0.132 | 0.132 | 0.348 | 0.262 | 0.259 | 0.205 | 0.206

Reference: the supplement of paper PMC10307832
